Values of other authors as cited in US20220315503A1, “METHODS FOR PRODUCING TREATED MANURE” (COMMONWEALTH SCIENTIFIC AND INDUSTRIAL RESEARCH ORGANISATION, priority 2019, published 2022).
Read-outs that look alike come from different tables or passages of the source.

What was measured:
enteric CH4 emission [1] = details: beef cattle; administered in animal feed
enteric CH4 emission [2] = details: sheep
enteric CH4 emission [3] = details: dairy cattle
[4] = test system: production of CH4 in rumen fluid
[5] = initial concentrations 132 to 177 μg/L; 1.5 hours packed-bed detention time

SMILES: O=[N+]([O-])OCCCO [3NOP, 3-nitrooxypropanol]
- reduction of CH4 emission (enteric CH4 emission [1]): 59%
- reduction in CH4 emissions (enteric CH4 emission [2]): 24%
- reduction in CH4 emissions (enteric CH4 emission [3]): up to 60%
- overall CH4 yield of spiked feces (CH4 yield of feces; feces spiked with 200 mg kg^−1 dry matter): no significant difference
- downstream effect on CH4 emissions of the feces (CH4 yield of feces; inhibitor included in animal diets): no significant downstream effect

SMILES: BrC(Br)Br [bromoform, tribromomethane]
- production of CH4 compared to control in rumen fluid ([4]; concentration of 1 μM): inhibit the production of CH4
- production of CH4 compared to control in rumen fluid ([4]; concentrations ≥5 μM): inhibit the production of CH4
- reduction (degradation) under anaerobic conditions [5]: > 99%

SMILES: ClC(Br)Br [dibromochloromethane]
- production of CH4 compared to control in rumen fluid ([4]; concentration of 1 μM): inhibit the production of CH4
- production of CH4 compared to control in rumen fluid ([4]; concentrations ≥5 μM): inhibit the production of CH4
